Reference: PubChem BioAssay (NCI)
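Here, GI50 denotes the concentration required for 50% inhibition of growth. TGI marks complete inhibition of growth.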

Legend:
Assay in all cases: NCI anticancer screen, dose series, 384-well format
786-0 renal = system: 786-0 renal
A498 renal = system: A498 renal
A549 NSCLC = system: A549 NSCLC
ACHN renal = system: ACHN renal
BT-549 breast = system: BT-549 breast
CAKI-1 renal = system: CAKI-1 renal
CCRF-CEM leukemia = system: CCRF-CEM leukemia
COLO 205 colon = system: COLO 205 colon
DU-145 prostate = system: DU-145 prostate
EKVX NSCLC = system: EKVX NSCLC
HCC-2998 colon = system: HCC-2998 colon
HCT-116 colon = system: HCT-116 colon
HCT-15 colon = system: HCT-15 colon
HL-60(TB) leukemia = system: HL-60(TB) leukemia
HOP-62 NSCLC = system: HOP-62 NSCLC
HOP-92 NSCLC = system: HOP-92 NSCLC
HS 578T breast = system: HS 578T breast
HT29 colon = system: HT29 colon
IGROV1 ovarian = system: IGROV1 ovarian
K-562 leukemia = system: K-562 leukemia
KM12 colon = system: KM12 colon
LOX IMVI melanoma = system: LOX IMVI melanoma
M14 melanoma = system: M14 melanoma
MALME-3M melanoma = system: MALME-3M melanoma
MCF7 breast = system: MCF7 breast
MDA-MB-231 breast = system: MDA-MB-231 breast
MDA-MB-435 melanoma = system: MDA-MB-435 melanoma
MDA-MB-468 breast = system: MDA-MB-468 breast
MOLT-4 leukemia = system: MOLT-4 leukemia
NCI-H226 lung = system: NCI-H226 lung
NCI-H23 lung = system: NCI-H23 lung
NCI-H322M lung = system: NCI-H322M lung
NCI-H460 NSCLC = system: NCI-H460 NSCLC
NCI-H522 lung = system: NCI-H522 lung
NCI/ADR-RES ovarian = system: NCI/ADR-RES ovarian
OVCAR-3 ovarian = system: OVCAR-3 ovarian
OVCAR-4 ovarian = system: OVCAR-4 ovarian
OVCAR-5 ovarian = system: OVCAR-5 ovarian
PC-3 prostate = system: PC-3 prostate
RPMI-8226 leukemia = system: RPMI-8226 leukemia
RXF 393 renal = system: RXF 393 renal
SF-268 CNS = system: SF-268 CNS
SF-295 CNS = system: SF-295 CNS
SF-539 CNS = system: SF-539 CNS
SK-MEL-2 melanoma = system: SK-MEL-2 melanoma
SK-MEL-28 melanoma = system: SK-MEL-28 melanoma
SK-MEL-5 melanoma = system: SK-MEL-5 melanoma
SK-OV-3 ovarian = system: SK-OV-3 ovarian
SN12C renal = system: SN12C renal
SNB-19 CNS = system: SNB-19 CNS
SNB-75 CNS = system: SNB-75 CNS
SR leukemia = system: SR leukemia
SW-620 colon = system: SW-620 colon
T-47D breast = system: T-47D breast
TK-10 renal = system: TK-10 renal
U251 glioblastoma = system: U251 glioblastoma
UACC-257 melanoma = system: UACC-257 melanoma
UACC-62 melanoma = system: UACC-62 melanoma

Structure (SMILES): CN1CC[C@]2(c3cccc(O)c3)CC(=O)/C(=C/c3ccccc3)[C@H]1C2
- GI50 ([…]-0 renal): 13.6 µM
- TGI (786-0 renal): 26.7 µM
- GI50 (A498 renal): 16.5 µM
- TGI (A498 renal): 30.3 µM
- GI50 (A549 NSCLC): 4.95 µM
- TGI (A549 NSCLC): 16.5 µM
- GI50 (ACHN renal): 12.8 µM
- TGI (ACHN renal): 25.7 µM
- GI50 (BT-549 breast): 5.7 µM
- TGI (BT-549 breast): 17.7 µM
- GI50 (CAKI-1 renal): 8.77 µM
- TGI (CAKI-1 renal): 21.1 µM
- GI50 (CCRF-CEM leukemia): 11.8 µM
- TGI (CCRF-CEM leukemia): 24.3 µM
- GI50 (COLO 205 colon): 15.4 µM
- TGI (COLO 205 colon): 28.9 µM
- GI50 (DU-145 prostate): 14.2 µM
- TGI (DU-145 prostate): 28.1 µM
- GI50 (EKVX NSCLC): 6.2 µM
- TGI (EKVX NSCLC): 20.3 µM
- GI50 (HCC-2998 colon): 1.77 µM
- TGI (HCC-2998 colon): 14.7 µM
- GI50 (HCT-116 colon): 8.49 µM
- TGI (HCT-116 colon): 20.9 µM
- GI50 (HCT-15 colon): 3.21 µM
- TGI (HCT-15 colon): 13.1 µM
- GI50 (HL-60(TB) leukemia): 2.06 µM
- TGI (HL-60(TB) leukemia): 4.13 µM
- GI50 (HOP-62 NSCLC): 17 µM
- TGI (HOP-62 NSCLC): 31.3 µM
- GI50 (HOP-92 NSCLC): 11.6 µM
- TGI (HOP-92 NSCLC): 24 µM
- GI50 (HS 578T breast): 3.7 µM
- TGI (HS 578T breast): 14.5 µM
- GI50 (HT29 colon): 13.4 µM
- TGI (HT29 colon): 26.8 µM
- GI50 (IGROV1 ovarian): 14.5 µM
- TGI (IGROV1 ovarian): 28 µM
- GI50 (K-562 leukemia): 4.3 µM
- TGI (K-562 leukemia): 18 µM
- GI50 (KM12 colon): 4.77 µM
- TGI (KM12 colon): 16.4 µM
- GI50 (LOX IMVI melanoma): 12 µM
- TGI (LOX IMVI melanoma): 24.5 µM
- GI50 (M14 melanoma): 12.7 µM
- TGI (M14 melanoma): 25.5 µM
- GI50 (MALME-3M melanoma): 6.65 µM
- TGI (MALME-3M melanoma): 18.9 µM
- GI50 (MCF7 breast): 11.5 µM
- TGI (MCF7 breast): 23.9 µM
- GI50 (MDA-MB-231 breast): 9.42 µM
- TGI (MDA-MB-231 breast): 22.1 µM
- GI50 (MDA-MB-435 melanoma): 4.41 µM
- TGI (MDA-MB-435 melanoma): 16.2 µM
- GI50 (MDA-MB-468 breast): 13.4 µM
- TGI (MDA-MB-468 breast): 26.4 µM
- GI50 (MOLT-4 leukemia): 6.77 µM
- TGI (MOLT-4 leukemia): 19.8 µM
- GI50 (NCI-H226 lung): 18.1 µM
- TGI (NCI-H226 lung): 32.1 µM
- GI50 (NCI-H23 lung): 12 µM
- TGI (NCI-H23 lung): 26.4 µM
- GI50 (NCI-H322M lung): 5.86 µM
- TGI (NCI-H322M lung): 18.6 µM
- GI50 (NCI-H460 NSCLC): 4.05 µM
- TGI (NCI-H460 NSCLC): 15.2 µM
- GI50 (NCI-H522 lung): 0.414 µM
- TGI (NCI-H522 lung): 2.38 µM
- GI50 (NCI/ADR-RES ovarian): 11.1 µM
- TGI (NCI/ADR-RES ovarian): 27.8 µM
- GI50 (OVCAR-3 ovarian): 4.8 µM
- TGI (OVCAR-3 ovarian): 15.7 µM
- GI50 (OVCAR-4 ovarian): 14.8 µM
- TGI (OVCAR-4 ovarian): 28.2 µM
- GI50 (OVCAR-5 ovarian): 17.6 µM
- TGI (OVCAR-5 ovarian): 31.8 µM
- GI50 (PC-3 prostate): 10 µM
- TGI (PC-3 prostate): 21.9 µM
- GI50 (RPMI-8226 leukemia): 1.86 µM
- TGI (RPMI-8226 leukemia): 3.77 µM
- GI50 (RXF 393 renal): 3.86 µM
- TGI (RXF 393 renal): 14.5 µM
- GI50 (SF-268 CNS): 11.9 µM
- TGI (SF-268 CNS): 24.3 µM
- GI50 (SF-295 CNS): 16.2 µM
- TGI (SF-295 CNS): 30.1 µM
- GI50 (SF-539 CNS): 6.7 µM
- TGI (SF-539 CNS): 19.6 µM
- GI50 (SK-MEL-2 melanoma): 21.1 µM
- TGI (SK-MEL-2 melanoma): 35.6 µM
- GI50 (SK-MEL-28 melanoma): 10.7 µM
- TGI (SK-MEL-28 melanoma): 22.8 µM
- GI50 (SK-MEL-5 melanoma): 4.91 µM
- TGI (SK-MEL-5 melanoma): 15.7 µM
- GI50 (SK-OV-3 ovarian): 5.01 µM
- TGI (SK-OV-3 ovarian): 16.6 µM
- GI50 (SN12C renal): 13.6 µM
- TGI (SN12C renal): 26.9 µM
- GI50 (SNB-19 CNS): 15 µM
- TGI (SNB-19 CNS): 29 µM
- GI50 (SNB-75 CNS): 6.43 µM
- TGI (SNB-75 CNS): 18.8 µM
- GI50 (SR leukemia): 1.16 µM
- TGI (SR leukemia): 3.15 µM
- GI50 (SW-620 colon): 5.35 µM
- TGI (SW-620 colon): 16.5 µM
- GI50 (T-47D breast): 11.8 µM
- TGI (T-47D breast): 24.5 µM
- GI50 (TK-10 renal): 14.9 µM
- TGI (TK-10 renal): 28.3 µM
- GI50 (U251 glioblastoma): 4.11 µM
- TGI (U251 glioblastoma): 15.5 µM
- GI50 (UACC-257 melanoma): 3.9 µM
- TGI (UACC-257 melanoma): 13.7 µM
- GI50 (UACC-62 melanoma): 10.5 µM
- TGI (UACC-62 melanoma): 22.5 µM
